{
  "source": "ChEMBL document CHEMBL1135264",
  "about": "“Thalidomide and its analogues as cyclooxygenase inhibitors” (Bioorg Med Chem Lett, 2002)",
  "note": "Active and inactive are the calls of the source. The calls are words filed in the database; no cut-off is given here.",
  "data": [
    {"target": "T1, Prostaglandin G/H synthase 1 (Ovis aries, UniProt P05979)", "T1 sequence (P05979 whole entry)": "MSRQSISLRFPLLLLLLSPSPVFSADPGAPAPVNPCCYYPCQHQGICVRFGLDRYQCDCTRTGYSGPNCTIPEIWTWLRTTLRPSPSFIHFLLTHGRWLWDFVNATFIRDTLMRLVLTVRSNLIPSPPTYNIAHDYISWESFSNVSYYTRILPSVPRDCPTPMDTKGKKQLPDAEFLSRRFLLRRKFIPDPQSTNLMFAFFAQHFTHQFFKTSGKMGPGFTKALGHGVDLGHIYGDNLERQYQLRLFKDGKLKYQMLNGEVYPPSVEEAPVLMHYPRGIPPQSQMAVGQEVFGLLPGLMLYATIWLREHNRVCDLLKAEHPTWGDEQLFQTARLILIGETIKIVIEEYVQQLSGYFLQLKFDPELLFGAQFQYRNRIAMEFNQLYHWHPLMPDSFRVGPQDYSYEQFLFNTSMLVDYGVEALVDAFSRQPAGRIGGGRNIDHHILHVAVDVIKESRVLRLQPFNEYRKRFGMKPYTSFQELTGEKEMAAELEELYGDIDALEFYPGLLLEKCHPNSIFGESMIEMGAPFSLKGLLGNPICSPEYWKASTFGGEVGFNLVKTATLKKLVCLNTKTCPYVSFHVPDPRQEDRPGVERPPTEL", "test": "Inhibitory activity (RA1) against Prostaglandin G/H synthase 1 was calculated relative to aspirin", "values": [
      {"smiles": "C[C@]1(N2C(=O)c3ccccc3C2=O)CCC(=O)NC1=O", "IC50": "Not Active"}
    ]},
    {"target": "T2, Prostaglandin G/H synthase 1 (Ovis aries) (UniProt P05979)", "T2 sequence (whole entry)": "T1 sequence (P05979 whole entry)", "test": "Selective index (SI) which is the ratio of IC50 of Prostaglandin G/H synthase 1 / […]; IN=Inactive", "values": [
      {"smiles": "C[C@]1(N2C(=O)c3ccccc3C2=O)CCC(=O)NC1=O", "Ratio": "inactive"}
    ]},
    {"target": "T3, Prostaglandin G/H synthase 2 (Ovis aries, UniProt P79208)", "T3 sequence (P79208 whole entry)": "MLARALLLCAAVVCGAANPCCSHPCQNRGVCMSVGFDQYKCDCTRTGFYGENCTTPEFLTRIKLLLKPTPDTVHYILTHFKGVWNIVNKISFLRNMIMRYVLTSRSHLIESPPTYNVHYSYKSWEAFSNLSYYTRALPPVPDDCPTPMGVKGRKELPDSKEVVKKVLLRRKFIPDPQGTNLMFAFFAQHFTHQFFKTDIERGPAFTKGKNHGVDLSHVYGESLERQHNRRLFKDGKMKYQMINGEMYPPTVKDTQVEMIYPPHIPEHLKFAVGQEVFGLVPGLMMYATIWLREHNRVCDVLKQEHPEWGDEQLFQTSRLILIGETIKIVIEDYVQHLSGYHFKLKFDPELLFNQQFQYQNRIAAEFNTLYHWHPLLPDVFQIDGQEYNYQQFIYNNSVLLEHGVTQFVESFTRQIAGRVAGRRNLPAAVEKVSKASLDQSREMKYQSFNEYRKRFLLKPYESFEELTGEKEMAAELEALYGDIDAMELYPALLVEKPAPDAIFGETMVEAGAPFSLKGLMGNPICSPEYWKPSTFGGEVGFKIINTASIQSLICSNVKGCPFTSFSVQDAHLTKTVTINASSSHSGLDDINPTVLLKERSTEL", "test": "Inhibitory activity (RA2) against Prostaglandin G/H synthase 2 was calculated relative to aspirin", "values": [
      {"smiles": "C[C@]1(N2C(=O)c3ccccc3C2=O)CCC(=O)NC1=O", "IC50": "Not Active"}
    ]},
    {"target": "T2, Prostaglandin G/H synthase 1 (Ovis aries)", "test": "Selective index (SI) which is the ratio of IC50 of Prostaglandin G/H synthase 1 / […]", "values": [
      {"smiles": "COc1cc(C)nc(N2C(=O)Cc3ccccc3C2=O)n1", "Ratio": 0.45},
      {"smiles": "Cc1cc(C)cc(N2C(=O)Cc3ccccc3C2=O)c1", "Ratio": 0.39},
      {"smiles": "C[C@@]1(N2C(=O)c3cccc(N)c3C2=O)CCC(=O)NC1=O", "Ratio": 11.1},
      {"smiles": "C[C@@]1(N2C(=O)c3ccc(N)cc3C2=O)CCC(=O)NC1=O", "Ratio": "< 0.07"},
      {"smiles": "Cc1cc(C)nc(N2C(=O)Cc3ccccc3C2=O)n1", "Ratio": 0.45},
      {"smiles": "O=C1CCN(N2C(=O)c3ccccc3C2=O)C(=O)N1", "Ratio": 1.45},
      {"smiles": "Cc1cc(C)c(C)c(N2C(=O)c3ccccc3C2=O)c1", "Ratio": 4.05},
      {"smiles": "C[C@@]1(N2C(=O)c3cccc([N+](=O)[O-])c3C2=O)CCC(=O)NC1=O", "Ratio": 0.23},
      {"smiles": "O=C1CCC(N2C(=O)c3ccccc3C2=O)C(=O)N1", "note": "(stereo unspecified)", "Ratio": 1.23},
      {"smiles": "O=C1NCCCC1N1C(=O)c2ccccc2C1=O", "note": "(stereo unspecified)", "Ratio": 1.43},
      {"smiles": "O=C1c2ccccc2C(=O)N1c1cnc(O)nc1O", "Ratio": 7.69},
      {"smiles": "Cc1cc(C)c(C)c(N2C(=O)c3ccccc3C2=O)c1C", "Ratio": 4.16},
      {"smiles": "O=C1c2ccccc2C(=O)N1CCn1ccc(=O)[nH]c1=O", "Ratio": 0.44},
      {"smiles": "Cc1cc(C)cc(N2C(=O)c3ccccc3C2=O)c1", "Ratio": 2.14},
      {"smiles": "C[C@@]1(N2C(=O)c3ccc([N+](=O)[O-])cc3C2=O)CCC(=O)NC1=O", "Ratio": 2.63},
      {"smiles": "Cc1cc(C)nc(N2C(=O)Cc3ccccc3C2=O)c1", "Ratio": 0.51},
      {"smiles": "COc1cc(OC)nc(N2C(=O)Cc3ccccc3C2=O)n1", "Ratio": 0.38},
      {"smiles": "C[C@@]1(N2C(=O)c3ccccc3C2=O)CCC(=O)NC1=O", "Ratio": 2.56}
    ]}
  ]
}
